Measurements as given in the supplement of paper PMC10307832.

Columns and labels:
Assay in all cases: relative viability (nuclei count vs DMSO), 5 days (fraction); higher = more cells survive
BAM7 + Navitoclax = compound: CCOC1=CC=CC=C1N=NC2=C(NN(C2=O)C3=NC(=CS3)C4=CC=CC=C4)C [BAM7] + CC1(C)CCC(c2ccc(Cl)cc2)=C(CN2CCN(c3ccc(C(=O)NS(=O)(=O)c4ccc(N[C@H](CCN5CCOCC5)CSc5ccccc5)c(S(=O)(=O)C(F)(F)F)c4)cc3)CC2)C1 [Navitoclax] (partner 0.5 µM)
How it was run: (§1)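 A single step with final 0.05% Triton X-100, 1% formaldehyde and 1 ug/ml Hoechst fixed the cells and stained nuclei 5 days after treatment. Lung cancer cell lines in 1536-well plates had been treated by pin tool the day after seeding with one drug alone or a fixed anchor-drug dose plus five library-drug doses (not always all listed) in √10 steps, and nuclei were counted on 4× images. Relative viability is the ratio of nuclei in treated wells to nuclei in vehicle wells, taken as the median of duplicate plates.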

BAM7 + Phenformin = compound: CCOC1=CC=CC=C1N=NC2=C(NN(C2=O)C3=NC(=CS3)C4=CC=CC=C4)C [BAM7] + N=C(N)NC(=N)NCCc1ccccc1 [Phenformin] (partner 250 µM)
How it was run: as §1

[1] = compound: CCn1c(-c2nonc2N)nc2c(C#CC(C)(C)O)ncc(OC[C@H]3CCCNC3)c21 + Nc1nc2[nH]cc(CCc3ccc(C(=O)N[C@@H](CCC(=O)O)C(=O)O)cc3)c2c(=O)[nH]1 [Pemetrexed] (partner 0.2 µM)
How it was run: as §1

[2] = compound: CCn1c(-c2nonc2N)nc2c(C#CC(C)(C)O)ncc(OC[C@H]3CCCNC3)c21 + Cc1nc(NC(=O)N2CCC[C@H]2C(N)=O)sc1-c1ccnc(C(C)(C)C(F)(F)F)c1 [Alpelisib] (partner 2 µM)
How it was run: as §1

UMC-11
relative viability (BAM7 + Navitoclax; first compound 0.5 µM): 0.306
relative viability (BAM7 + Navitoclax; first compound 5 µM): 0.319
relative viability (BAM7 + Navitoclax; first compound 15.81 µM): 0.391
relative viability (BAM7 + Navitoclax; first compound 50 µM): 0.372
relative viability (BAM7 + Phenformin; first compound 0.5 µM): 0.336
relative viability (BAM7 + Phenformin; first compound 5 µM): 0.371
relative viability (BAM7 + Phenformin; first compound 15.81 µM): 0.311
relative viability (BAM7 + Phenformin; first compound 50 µM): 0.312
relative viability ([1]; first compound 0.01 µM): 0.804
relative viability ([1]; first compound 0.03162 µM): 0.758
relative viability ([1]; first compound 0.1 µM): 0.749
relative viability ([1]; first compound 0.3162 µM): 0.722
relative viability ([1]; first compound 1 µM): 0.758
relative viability ([2]; first compound 0.01 µM): 1.04
relative viability ([2]; first compound 0.03162 µM): 0.974
relative viability ([2]; first compound 0.1 µM): 0.969
relative viability ([2]; first compound 0.3162 µM): 0.96
relative viability ([2]; first compound 1 µM): 0.976
